The conditions of data set [1]: as reported in Japanese Patent Public Disclosure No. 25323/84; cited from earlier work.
Data set [2] is described as follows: Blood pressure by the tail-cuff method in cyclosporin-induced renal injury rats. The format is in vivo, Sprague-Dawley rats. Particulars: until the end of observation (6 weeks); cyclosporin 15 mg/kg/day s.c.; BH4 group: plus BH4 dihydrochloride 10 mg/kg/day oral. As for the experimental part: (§1) Sprague-Dawley rats at the age of 8 to 10 weeks (supplied from Charles River) (300 g) were divided into the following three experimental groups, and examined by comparison. The animals were grown with a low-salt (0.05%) feed during the experimental period of 6 weeks, and treated for 5 weeks from the second to last weeks of the experiment as follows.
(§2) Each group was observed during the experimental period of 6 weeks. The blood pressure, renal cortical NOS activity and blood BP level were determined by the procedures described below. After 6 weeks, blood was collected from the abdominal aorta under anesthesia with phenobarbital, and then the kidney was perfused with physiological saline, then extracted and histologically examined for the effects of BH4 administration on cyclosporin-induced renal injury.
Blood pressure was measured by the tail-cuff method at the start of the experiment and after 2, 4 and 6 weeks.
(§3) Group-to-group statistic analyses were made by two-way ANOVA. In the following analyses, the significance level was p<0.05.

For another data set, the system named is renal tissue NOS. The experiment in a line: Renal cortical NOS activity (3H-citrulline produced from 3H-arginine) in cyclosporin-induced renal injury rats. Particulars: orally administered BH4, cyclosporin-treated rats. Type of data set: in vivo, Sprague-Dawley rats. The protocol: as §1, §2
NOS activity was determined by measuring ^3 H-citrulline produced by renal tissue NOS using 3H-arginine.
as §3

Data set [3] in a line: Biopterin (BP) level in blood by HPLC in cyclosporin-induced renal injury rats. Particulars: average; cyclosporin 15 mg/kg/day s.c. plus BH4 dihydrochloride 10 mg/kg/day oral. Type of data set: in vivo, Sprague-Dawley rats. The protocol:
as §1, §2, §3

The test system of a further data set is NOS (NADPH-diaphorase). The data set is described as follows: Renal histochemistry, NADPH-diaphorase staining. Type of data set: in vivo, Sprague-Dawley rats. As for the experimental part:
as §1, §2
(§4) Sections were prepared from frozen renal tissues and stained with NADPH-diaphorase for evaluating NOS activity on the tissues. The tissues were also stained with a monoclonal antibody against the macrophage cell membrane antigen ED-1 to examine the NOS isoform.

For the next data set, the system named is ED-1-positive cells. The data set is described as follows: Renal histochemistry, staining with monoclonal antibody against macrophage cell membrane antigen ED-1. Type of data set: in vivo, Sprague-Dawley rats. To be noted: frozen renal tissues; cyclosporin 15 mg/kg/day s.c.; BH4 group: plus BH4 dihydrochloride 10 mg/kg/day oral. As for the experimental part:
as §1, §2, §4

For data set [4], the system named is cyclosporin-induced renal injury rats. The experiment in a line: Histopathological findings (arteriolopathy) in renal tissue samples, HE and periodic acid-Shiff staining. The format is in vivo, Sprague-Dawley rats. The protocol: as §1, §2
After collecting urine and measuring blood pressure at week 6, the animals were abdominally incised under anesthesia, bled from the abdominal aorta and perfused with physiological saline via this site. The extracted kidney was fixed in a 10% formaldehyde solution, embedded in paraffin, then sliced by a microtome into renal tissue samples of 4 μm. The samples were stained with hematoxylin/eosin (HE) and periodic acid-Shiff. The incidences of pathological findings, i.e. arteriolopathy in the rat renal tissue samples were examined by comparison.
as §3

Data set [5] can be described thus: Acute toxicity, oral, rats. Particulars: rat, in vivo, po.
A further data set has as its system rats. The experiment in a line: Acute toxicity, oral, rats. To be noted: rats, oral route.

With `C[C@H](O)[C@H](O)C1CNc2nc(N)[nH]c(=O)c2N1` (stereo partly drawn) [(6R,S)-5,6,7,8-tetrahydrobiopterin], in data set [1], the toxicity in words entry was “only slightly toxic”.

With `C[C@H](O)[C@H](O)[C@H]1CNc2nc(N)[nH]c(=O)c2N1` [BH4, (6R)-L-erythro-5,6,7,8-tetrahydrobiopterin], the Blood pressure entry in [2] is listed as “kept at a normal level”. For the same compound, the “vascular endothelial NOS activity level / function” value in the data set with renal tissue NOS is “increased vascular endothelial NOS activity level”. In addition, the “decrease of blood BP level as compared with CyA group” value in data set [3] was 0.002 nmol. For the same compound, the NADPH-diaphorase stainability result in the data set on NOS (NADPH-diaphorase) (frozen renal tissues, cyclosporin 15 mg/kg/day s.c., BH4 group: plus BH4 dihydrochloride 10 mg/kg/day oral) is recorded as “recovered the NADPH-diaphorase stainability”. In the data set with NOS (NADPH-diaphorase) (renal histochemistry, cyclosporin plus oral BH4 dihydrochloride), the “functions of vascular endothelial NOS” value is “normalized the functions of vascular endothelial NOS”. Besides, the “invasions of ED-1-positive cells” value in the data set on ED-1-positive cells is “decreased invasions of ED-1-positive cells”. Moreover, the “histopathological findings of arteriolopathy, conclusion in words” value in data set [4] (model rats, BH4 orally administered) is listed as “remarkably improved histopathological findings”. Also, in data set [4] (p<0.0001, cyclosporin 15 mg/kg/day s.c., BH4 group: plus BH4 dihydrochloride 10 mg/kg/day oral), the “arteriolopathy, result in words with significance” value was “significantly (p<0.0001) inhibited arteriolopathy”. The “Percentage of the incidence of pathological findings in renal tissues: Arteriolopathy” value in data set [4] (± SE, week 6, control group 0.00 ± 0.00, cyclosporin 15 mg/kg/day s.c., BH4 group: plus BH4 dihydrochloride 10 mg/kg/day oral) is reported as 36.814 ± 2.093%. For the same compound, in [5], the LD50 is ≥ 2000 mg/kg. For the same compound, the toxicity in words result in the data set on rats is listed as “little toxicity”.

The record behind these values is patent publication US6288067A, “Prophylactic or therapeutic agents for drug-induced renal injury” (Suntory Limited, priority 1998, dated 2001).
